Test results as given in patent publication US20260232767A1, “INTERLEUKIN-23 RECEPTOR ANTAGONIST PEPTIDES FOR USE IN THE TREATMENT OF PSORIASIS” (Janssen Pharmaceutica NV, priority 2023, published 2026).

Tested on: subjects with moderate-to-severe plaque psoriasis
Test: Safety, adverse events, Example 2 through Week 56
Type: in vivo, human
Details: 25 mg QD, through Week 56
From the text: The LTE safety analysis was based on randomized participants in Example who entered the present long-term extension study and received at least one dose of study intervention (including a partial dose) during the study period.

## CC(=O)NCCCC[C@@H]1NC(=O)[C@H](Cc2c[nH]c3c(C)cccc23)NC(=O)[C@H]([C@@H](C)O)NC(=O)[C@H](CC(N)=O)NC(=O)[C@@H](NC(C)=O)C(C)(C)SSC(C)(C)[C@@H](C(=O)N[C@@H](Cc2ccc(OCCN)cc2)C(=O)N[C@@H](Cc2ccc3ccccc3c2)C(=O)NC2(C(=O)N[C@@H](CCC(=O)O)C(=O)N[C@@H](CC(N)=O)C(=O)N[C@@H](Cc3cccnc3)C(=O)N(C)CC(N)=O)CCOCC2)NC1=O [IL-23 receptor antagonist peptide, Ac-[Pen]*-N-T-[W(7-Me)]-[Lys(Ac)]-[Pen]*-Phe[4-(2-aminoethoxy)]-[2-Nal]-[THP]-E-N-[3-Pal]-Sarc-NH2 (*[Pen]-[Pen]* formdisulfidebond)]
  Cardiac disorders: number of subjects: 0
  Chills: number of subjects: 0
  Cholelithiasis: number of subjects: 0
  Chronic obstructive pulmonary disease: number of subjects: 0
  Coronary artery disease: number of subjects: 0
  Cough: % of subjects: (2.3%)
  Cough: number of subjects: 1
  Decreased appetite: % of subjects: (2.3%)
  Decreased appetite: number of subjects: 1
  Depression: number of subjects: 0
  Dermal cyst: % of subjects: (2.3%)
  Dermal cyst: number of subjects: 1
  Dermatitis acneiform: number of subjects: 0
  Dermatitis contact: number of subjects: 0
  Diabetes mellitus: % of subjects: (2.3%)
  Diabetes mellitus: number of subjects: 1
  Diffuse alopecia: % of subjects: (2.3%)
  Diffuse alopecia: number of subjects: 1
  Dysuria: number of subjects: 0
  Ear and labyrinth disorders: % of subjects: (2.3%)
  Ear and labyrinth disorders: number of subjects: 1
  Endocrine disorders: number of subjects: 0
  Eye disorders: number of subjects: 0
  Eyelid skin dryness: number of subjects: 0
  Fatigue: number of subjects: 0
  General disorders and administration site conditions: % of subjects: (2.3%)
  General disorders and administration site conditions: number of subjects: 1
  Goiter: number of subjects: 0
  Haemochromatosis: number of subjects: 0
  Hand dermatitis: number of subjects: 0
  Hematuria: number of subjects: 0
  Hepatobiliary disorders: % of subjects: (2.3%)
  Hepatobiliary disorders: number of subjects: 1
  Hypercholesterolemia: number of subjects: 0
  Hyperglycemia: number of subjects: 0
  Hyperlipidemia: number of subjects: 0
  Hypertension: number of subjects: 0
  Hypertransaminasemia: number of subjects: 0
  Hypertriglyceridemia: % of subjects: (2.3%)
  Hypertriglyceridemia: number of subjects: 1
  Hypoacusis: number of subjects: 0
  Immune system disorders: number of subjects: 0
  Influenza like illness: number of subjects: 0
  Insomnia: number of subjects: 0
  Intertrigo: number of subjects: 0
  Ketonuria: number of subjects: 0
  Leukocyturia: number of subjects: 0
  Leukopenia: number of subjects: 0
  Libido decreased: number of subjects: 0
  Liver disorder: number of subjects: 0
  Lymphopenia: number of subjects: 0
  Menopause: number of subjects: 0
  Metabolism and nutrition disorders: % of subjects: (4.7%)
  Metabolism and nutrition disorders: number of subjects: 2
  Neoplasms benign, malignant and unspecified (incl cysts and polyps): number of subjects: 0
  Nephrolithiasis: number of subjects: 0
  Neutropenia: number of subjects: 0
  Night sweats: number of subjects: 0
  Non-cardiac chest pain: number of subjects: 0
  Ocular cyst: number of subjects: 0
  Oedema peripheral: number of subjects: 0
  Oropharyngeal pain: number of subjects: 0
  Procedural pain: number of subjects: 0
  Productive cough: number of subjects: 0
  Proteinuria: number of subjects: 0
  Pruritus: number of subjects: 0
  Psoriasis: number of subjects: 0
  Psychiatric disorders: number of subjects: 0
  Pyrexia: % of subjects: (2.3%)
  Pyrexia: number of subjects: 1
  Rash pruritic: number of subjects: 0
  Renal and urinary disorders: % of subjects: (2.3%)
  Renal and urinary disorders: number of subjects: 1
  Renal mass: % of subjects: (2.3%)
  Renal mass: number of subjects: 1
  Respiratory, thoracic and mediastinal disorders: % of subjects: (2.3%)
  Respiratory, thoracic and mediastinal disorders: number of subjects: 1
  Retinal vein occlusion: number of subjects: 0
  Rhinorrhoea: number of subjects: 0
  Seasonal allergy: number of subjects: 0
  Skin and subcutaneous tissue disorders: % of subjects: (7.0%)
  Skin and subcutaneous tissue disorders: number of subjects: 3
  Skin laceration: number of subjects: 0
  Skin papilloma: number of subjects: 0
  Social circumstances: number of subjects: 0
  Steatohepatitis: % of subjects: (2.3%)
  Steatohepatitis: number of subjects: 1
  Subjects with 1 or more treatment-emergent serious adverse events: 0
  Subjects with AE leading to discontinuation: Abdominal discomfort: 0
  Subjects with AE leading to discontinuation: Abdominal pain: 0
  Subjects with AE leading to discontinuation: Asthenia: 0
  Subjects with AE leading to discontinuation: Chills: 0
  Subjects with AE leading to discontinuation: Ear and labyrinth disorders: 0
  Subjects with AE leading to discontinuation: Gastrointestinal disorders: 0
  Subjects with AE leading to discontinuation: General disorders and administration site conditions: 0
  Subjects with AE leading to discontinuation: Headache: 0
  Subjects with AE leading to discontinuation: Insomnia: 0
  Subjects with AE leading to discontinuation: Nausea: 0
  Subjects with AE leading to discontinuation: Nervous system disorders: 0
  Subjects with AE leading to discontinuation: Proctalgia: 0
  Subjects with AE leading to discontinuation: Psoriasis: 0
  Subjects with AE leading to discontinuation: Psychiatric disorders: 0
  Subjects with AE leading to discontinuation: Skin and subcutaneous tissue disorders: 0
  Subjects with AE leading to discontinuation: Suicide attempt: 0
  Subjects with AE leading to discontinuation: Vertigo: 0
  Subjects with AE leading to discontinuation: Vomiting: 0
  Subjects with COVID-19 associated AE: SARS-CoV-2 test positive: 0
  Subjects with treatment-emergent AE: Influenza: 0
  Subjects with treatment-emergent serious AE: COVID-19: 0
  Subjects with treatment-emergent serious AE: Cardiac disorders: 0
  Subjects with treatment-emergent serious AE: Cerebrovascular accident: 0
  Subjects with treatment-emergent serious AE: Coronary artery disease: 0
  Subjects with treatment-emergent serious AE: Diverticulitis: 0
  Subjects with treatment-emergent serious AE: Foot deformity: 0
  Subjects with treatment-emergent serious AE: General disorders and administration site conditions: 0
  Subjects with treatment-emergent serious AE: Infected cyst: 0
  Subjects with treatment-emergent serious AE: Infections and infestations: 0
  Subjects with treatment-emergent serious AE: Injury, poisoning and procedural complications: 0
  Subjects with treatment-emergent serious AE: Intervertebral disc protrusion: 0
  Subjects with treatment-emergent serious AE: Ligament injury: 0
  Subjects with treatment-emergent serious AE: Musculoskeletal and connective tissue disorders: 0
